Results taken from patent publication US7977343B2, “Adenine derivatives” (Merck Patent Gesellschaft mit beschrankter Haftung, priority 2005, dated 2011).

Target: T1, Recombinant human HSP90α (Homo sapiens, UniProt P07900)
T1 construct: host or cells: E. coli
Assay: HSP90 radioligand filter binding test ([3H]17AAG competition)
Details: [3H]17AAG 0.08 μM, HSP90 1.5 μg/assay, 22° C., 30 min; read-out: HSP90 inhibition IC50
Text: The binding of geldanamycin or 17-allylamino-17-demethoxygeldanamycin (17AAG) to HSP90 and competitive inhibition thereof can be utilised in order to determine the inhibitory activity of the compounds according to the invention (Carreras et al. 2003, Chiosis et al. 2002).
In the specific case, a radioligand filter binding test is used. The radioligand used here is tritium-labelled 17-allylaminogeldanamycin, [3H]17AAG. This filter binding test allows a targeted search for inhibitors which interfere with the ATP binding site.
Recombinant human HSP90α (E. coli expressed, 95% purity);
[3H]17AAG (17-allylaminogeldanamycin, [allylamino-2,3-^3H. Specific activity: 1.11×10^12 Bq/mmol (Moravek, MT-1717);
HEPES filter buffer (50 mM HEPES, pH 7.0, 5 mM MgCl2, BSA 0.01%) Multiscreen FB (1 μm) filter plate (Millipore, MAFBNOB 50).
The 96-well microtitre filter plates are firstly irrigated and coated with 0.1% of polyethylenimine.
The test is carried out under the following conditions:
Reaction temperature 22° C.
Reaction time: 30 min., shaking at 800 rpm
50 mM HEPES HCl, pH 7.0, 5 mM MgCl2, 0.01% (w/v) BSA
At the end of the reaction, the supernatant in the filter plate is removed by suction with the aid of a vacuum manifold (Multiscreen Separation System, Millipore), and the filter is washed twice.
The filter plates are then measured in a beta counter (Microbeta, Wallac) with scintillator (Microscint 20, Packard).
“% of control” is determined from the “counts per minutes” values and the IC-50 value of a compound is calculated therefrom.

| Structure (SMILES) | IC50 |
| --- | --- |
| O[C@H]1C[C@H](COc2ccccc2)N(c2nc(Cl)nc3[nH]cnc23)C1 [Compound A53, 2-chloro-6-[(2R,4S)-2-phenoxymethyl-4-hydroxypyrrolidin-1-yl]-9H-purine] | 30 µM |
| Cc1nc(N2CCC[C@@H]2COc2ccccc2Cl)c2nc[nH]c2n1 [Compound A58, 2-Methyl-6-[(R)-2-(2-chloro-phenoxymethyl)pyrrolidin-1-yl]-9H-purine] | 6.3 µM |
| Brc1ccccc1OC[C@H]1CCCN1c1ncnc2[nH]cnc12 [Compound A52, 6-[(R)-2-(2-Bromophenoxymethyl)-pyrrolidin-1-yl]-9H-purine] | 20 µM |

Molecules with a lower IC50, results first:

| IC50 | Structure (SMILES) |
| --- | --- |
| 1.5 µM | Cc1nc(N2CCC[C@@H]2COc2ccccc2F)c2nc[nH]c2n1 [Compound A57, 2-Methyl-6-[(R)-2-(2-fluorophenoxy-methyl)pyrrolidin-1-yl]-9H-purine] |
| 0.9 µM | Fc1nc(N2CCC[C@@H]2COc2ccccc2F)c2nc[nH]c2n1 [Compound A47, 2-Fluoro-6-[(R)-2-(2-fluorophenoxy-methyl)pyrrolidin-1-yl]-9H-purine] |
